{"source": "paper PMC4938916", "about": "“Effect of mutations to amino acid A301 and F361 in thermostability and catalytic activity of the β-galactosidase from Bacillus subtilis VTCC-DVN-12-01” (BMC Biochemistry, 2016)", "experiment_in_all_cases": "o-nitrophenol release at […] nm, Lineweaver-Burk", "assay_type_in_all_cases": "biochemical", "details_in_all_cases": "100 mM buffer Z (1 mM MgSO4, 50 mM 2-mercaptoethanol), pH 7.0, 55 °C; apparent", "key": {"[1]": {"biological_target": "T1, β-galactosidase LacA (LacA-WT) (Bacillus subtilis, UniProt O07012)", "T1 construct": "gene ganA; full lacA gene (2061 bp) in pET22b(+), C-terminal 6xHis tag kept, E. coli JM109(DE3), Ni ProBond purified, 70 kDa, GH42"}, "[2]": {"biological_target": "T2, β-galactosidase LacA (LacA-WT) (Bacillus subtilis, UniProt O07012, F346Y, form not given)", "T2 construct": "gene ganA; full lacA gene (2061 bp) in pET22b(+), C-terminal 6xHis tag kept, E. coli JM109(DE3), Ni ProBond purified, 70 kDa, GH42", "T2 sequence (O07012 whole entry F346Y, form open)": "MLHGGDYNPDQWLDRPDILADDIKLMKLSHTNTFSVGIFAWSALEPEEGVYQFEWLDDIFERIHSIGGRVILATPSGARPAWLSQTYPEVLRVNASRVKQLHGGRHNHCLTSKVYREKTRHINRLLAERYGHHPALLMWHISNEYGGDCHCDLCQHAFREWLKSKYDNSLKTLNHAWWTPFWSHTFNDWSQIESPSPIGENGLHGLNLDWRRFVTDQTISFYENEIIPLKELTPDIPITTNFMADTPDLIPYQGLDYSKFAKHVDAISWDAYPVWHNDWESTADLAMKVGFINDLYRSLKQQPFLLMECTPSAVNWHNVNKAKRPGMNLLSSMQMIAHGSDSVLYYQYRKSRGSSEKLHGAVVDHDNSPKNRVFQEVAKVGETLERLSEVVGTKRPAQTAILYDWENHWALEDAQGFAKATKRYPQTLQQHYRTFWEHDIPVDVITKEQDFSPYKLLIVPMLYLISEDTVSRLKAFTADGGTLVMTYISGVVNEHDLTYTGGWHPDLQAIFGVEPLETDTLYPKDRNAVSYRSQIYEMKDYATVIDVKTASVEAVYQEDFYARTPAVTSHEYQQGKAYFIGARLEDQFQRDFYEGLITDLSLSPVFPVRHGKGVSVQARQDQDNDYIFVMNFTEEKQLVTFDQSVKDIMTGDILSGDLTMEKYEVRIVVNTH"}, "[3]": {"biological_target": "T3, β-galactosidase LacA (LacA-WT) (Bacillus subtilis, UniProt O07012, A286V, form not given)", "T3 construct": "gene ganA; full lacA gene (2061 bp) in pET22b(+), C-terminal 6xHis tag kept, E. coli JM109(DE3), Ni ProBond purified, 70 kDa, GH42", "T3 sequence (O07012 whole entry A286V, form open)": "as the sequence (O07012 whole entry F346Y, form open) above, with A286V, Y346F counted along it"}}}
{"smiles": "O=[N+]([O-])c1ccccc1O[C@@H]1O[C@H](CO)[C@H](O)[C@H](O)[C@H]1O", "note": "[oNPG, Ortho-nitrophenyl-β-D-galactopyranoside]", "values": [{"measurement": "Km", "setting": "[1]", "value": "9.28 ± 0.72", "unit": "mM"}, {"measurement": "Km", "setting": "[2]", "value": "8.02 ± 0.27", "unit": "mM"}, {"measurement": "Km", "setting": "[3]", "value": "5.57 ± 0.56", "unit": "mM"}]}
